# According to patent US10130682B2, “Methods of using pigment epithelium derived factor (PEDF) for the treatment and prevention of agent-induced gonadal or uterine toxicity” (Ramot at Tel-Aviv University Ltd., priority 2014, dated 2018):
# How the values were obtained:
# PEDF [1] = assay: Uterine PEDF protein (western blot), sub-acute tamoxifen model; format: in vivo, mouse; settings: tamoxifen daily for 7 days, increasing doses
# CD34 = CD34 immunohistochemical staining of uterine blood vessels, prolonged tamoxifen model; format: in vivo, mouse; settings: prolonged tamoxifen alone vs control
# Experimental: (§1) DXR damage was evaluated in 7 weeks ICR female mice following treatment for superovulation with pregnant mares' serum (PMSG, 7 IU) SC on day 0 and human chorionic gonadotropin (hCG, […]) SC on day 2. On day 1, mice were administered with DXR (6 mg/kg) or saline (control) IV. Mice ovaries were retrieved on day 3 (FIG. 1A). The ability of rPEDF to overcome the destructive effect of DXR 7 weeks ICR female mice were treated with DXR (6 mg/kg) or saline (control) IV on day 0, rPEDF (2 mg/kg) or TRIS (control) was administered SC on day 1, followed by induction for superovulation with PMSG (7 IU) SC on day 4 and hCG (7 IU) SC on day 6. Mice ovaries were retrieved on day 7 (FIG. 2A). […] Mice uteri were excised at day 7. […] Mice treated with tamoxifen alone served as control. […] Mice treated with tamoxifen alone served as control.
# Paraffin-embedded sections were deparaffinized, microwave heated while being subjected to an antigen retrieval agent (H-3300, Vector Laboratories Inc., Burlingame, Calif., USA), cooled on ice to room temperature, rinsed in PBS, incubated for 1 hour with PBSTg (0.2% Tween and gelatin in PBS), washed with PBS, blocked for 10 minutes in blocking solution (Cell Marque Corporation, Calif., USA) and incubated overnight with anti PNPLA2 or anti-CD34 primary antibodies. […]
# ERα [2] = assay: Uterine ERα mRNA (qPCR), prolonged tamoxifen model; format: in vivo, mouse; settings: prolonged tamoxifen treatment
# VEGF [3] = assay: Uterine VEGF protein (western blot), sub-acute tamoxifen model; format: in vivo, mouse; settings: tamoxifen daily for 7 days, various concentrations
# Experimental: as §1
# (§2) Samples were homogenized in cold lysis buffer (20 mM HEPES, 150 mM NaCl and 0.2% Igepal; sigma) and centrifuged at 12,000 rpm, for 15 min, at 4° C.). Proteins were separated by sodium dodecyl sulfate polyacrylamide gel electrophoresis (SDS-PAGE; 10%; Bio-Rad, Israel). […] Approximate molecular masses were determined by comparison with the migration of pre-stained protein standards (Bio-Rad). […] Intensity of the protein bands was quantified by Image J […] (NIH).
# Laminin receptor [4] = assay: Uterine Laminin receptor mRNA (qPCR), sub-acute tamoxifen model; format: in vivo, mouse; settings: sub-acute tamoxifen treatment
# PNPLA2 [5] = assay: Uterine PNPLA2 mRNA (qPCR), prolonged tamoxifen model; format: in vivo, mouse; settings: one month of tamoxifen treatment
# Laminin receptor [6] = assay: Uterine Laminin receptor mRNA (qPCR), prolonged tamoxifen model; format: in vivo, mouse; settings: one month of tamoxifen treatment
# OVX ICR mice = assay: Uterine weight, prolonged tamoxifen model in ovariectomized mice; format: in vivo, mouse; settings: tamoxifen 2.5 μg/mouse 5 days per week for one month
# Experimental: as §1
# (§3) At the end of each experiment, uteri were isolated, excised and weighed.
# VEGF [7] = assay: Uterine VEGF protein (western blot), prolonged tamoxifen model; format: in vivo, mouse; settings: tamoxifen 2.5 μg/mouse 5 days per week for one month
# Experimental: as §1, §2
# PEDF [8] = assay: Uterine PEDF protein (western blot), prolonged tamoxifen model; format: in vivo; settings: tamoxifen 2.5 μg/mouse 5 days per week for one month
# [9] = system: progesterone receptor (PR); assay: Uterine PR mRNA (qPCR), prolonged tamoxifen model; format: in vivo, mouse; settings: prolonged tamoxifen treatment
# Experimental: DXR damage was evaluated in 7 weeks ICR female mice following treatment for superovulation with pregnant mares' serum (PMSG, 7 IU) SC on day 0 and human chorionic gonadotropin (hCG, […]) SC on day 2. On day 1, mice were administered with DXR (6 mg/kg) or saline (control) IV. Mice ovaries were retrieved on day 3 (FIG. 1A). The ability of rPEDF to overcome the destructive effect of DXR 7 weeks ICR female mice were treated with DXR (6 mg/kg) or saline (control) IV on day 0, rPEDF (2 mg/kg) or TRIS (control) was administered SC on day 1, followed by induction for superovulation with PMSG (7 IU) SC on day 4 and hCG (7 IU) SC on day 6. Mice ovaries were retrieved on day 7 (FIG. 2A). […] Mice uteri were excised at day 7. […] Mice treated with tamoxifen alone served as control. […]
# Total RNA was isolated from various tissues (ovaries, eyes) or from granulosa cells, using Trizol reagent (Invitrogen) according to manufacturer's instructions, and quantified with the Nano-Drop spectrophotometer (ND-1000; Thermo Scientific). […] DNA was amplified using 1 μl RT reaction and 50 pmol gene-specific primers in ReadyMix™ mixture (Sigma). […] Changes in the level of expression of mRNA were detected by SYBR green reagent (SYBR® Green PCR Master Mix, ABI, Carlsbad, Calif., USA) along with 15 ng cDNA and specific primers, on a StepOnePlus Real-Time PCR System (Applied Biosystems, Foster City, Calif., USA).
# ERα [10] = assay: Uterine ERα mRNA (qPCR), sub-acute tamoxifen model; format: in vivo, mouse; settings: sub-acute tamoxifen treatment
# PNPLA2 [11] = assay: Uterine PNPLA2 mRNA (qPCR), sub-acute tamoxifen model; format: in vivo, mouse; settings: sub-acute tamoxifen treatment
# Experimental: DXR damage was evaluated in 7 weeks ICR female mice following treatment for superovulation with pregnant mares' serum (PMSG, 7 IU) SC on day 0 and human chorionic gonadotropin (hCG, […]) SC on day 2. On day 1, mice were administered with DXR (6 mg/kg) or saline (control) IV. Mice ovaries were retrieved on day 3 (FIG. 1A). […] Mice ovaries were retrieved on day 7 (FIG. 2A). […] Mice uteri were excised at day 7.
# Total RNA was isolated from various tissues (ovaries, eyes) or from granulosa cells, using Trizol reagent (Invitrogen) according to manufacturer's instructions, and quantified with the Nano-Drop spectrophotometer (ND-1000; Thermo Scientific). First-strand cDNA was produced by RT (Maxima™ Reverse transcriptase, Thermo Scientific) from a total of 1 μg RNA, using oligo-dt primers (Thermo Scientific). DNA was amplified using 1 μl RT reaction and 50 pmol gene-specific primers in ReadyMix™ mixture (Sigma). Polymerase Chain Reaction (PCR) products were separated by 1.5% agarose gel electrophoresis and visualized by ethidium bromide staining. Changes in the level of expression of mRNA were detected by SYBR green reagent (SYBR® Green PCR Master Mix, ABI, Carlsbad, Calif., USA) along with 15 ng cDNA and specific primers, on a StepOnePlus Real-Time PCR System (Applied Biosystems, Foster City, Calif., USA).
# [12] = system: ovariectomized (OVX) ICR mice; assay: Uterine weight, sub-acute tamoxifen model in ovariectomized mice; format: in vivo, mouse; parameters: uterine weight: dose or concentration left out as unconfirmed; settings: tamoxifen 0.3-3.3 daily for 7 days
# Experimental: as §1, §3
# [13] = system: progesterone receptor (PR); assay: Uterine PR mRNA (qPCR), sub-acute tamoxifen model; format: in vivo, mouse; settings: sub-acute tamoxifen treatment
# SOD-1 = SOD-1 mRNA level (qPCR) in LH-15 cells under H2O2; format: cell-based, rat; settings: H2O2 treatment alone, 24 hours
# Experimental: (§4) Rat granulosa cell line LH-15 [Suh et al. J Cell Biol (1992) 119: 439-450] was cultured in hormone-free DMEM-F12 medium, supplemented with penicillin (100 IU/ml; Biological Industries), streptomycin ([…]; Biological Industries) and 10% charcoal-stripped fetal bovine serum (CS-FBS; Invitrogen) (culture medium), as described previously (Breckwoldt et al. 1996, Sasson & Amsterdam 2002). Cells were serum-starved for 16 hours (0.1% CS-FBS) prior to and during recombinant PEDF (rPEDF) stimulation or incubated in 2% CS-FBS during H2O2 stimulation.
# (§5) Total RNA was isolated from various tissues (ovaries, eyes) or from granulosa cells, using Trizol reagent (Invitrogen) according to manufacturer's instructions, and quantified with the Nano-Drop spectrophotometer (ND-1000; Thermo Scientific). First-strand cDNA was produced by RT (Maxima™ Reverse transcriptase, Thermo Scientific) from a total of 1 μg RNA, using oligo-dt primers (Thermo Scientific). DNA was amplified using 1 μl RT reaction and 50 pmol gene-specific primers in ReadyMix™ mixture (Sigma). […] Changes in the level of expression of mRNA were detected by SYBR green reagent (SYBR® Green PCR Master Mix, ABI, Carlsbad, Calif., USA) along with 15 ng cDNA and specific primers, on a StepOnePlus Real-Time PCR System (Applied Biosystems, Foster City, Calif., USA).
# BAX = BAX protein level (western blot) in LH-15 cells under H2O2; format: cell-based, rat; settings: H2O2 treatment alone, 24 hours
# Experimental: as §4
# Samples were homogenized in cold lysis buffer (20 mM HEPES, 150 mM NaCl and 0.2% Igepal; sigma) and centrifuged at 12,000 rpm, for 15 min, at 4° C.). Proteins were separated by sodium dodecyl sulfate polyacrylamide gel electrophoresis (SDS-PAGE; 10%; Bio-Rad, Israel). Separated proteins were transferred onto nitrocellulose membranes (Whatman GmbH, Germany) in a mini tank transfer unit (TE 22, Amersham, UK). Approximate molecular masses were determined by comparison with the migration of pre-stained protein standards (Bio-Rad). Blots were blocked for 1 hour in TBST (10 mM Tris-HCl, pH=8.0, 150 mM NaCl, 0.05% Tween 20) containing 5% skim-milk (Alba, N.Y., USA) followed by an over-night incubation at 4° C. with primary antibodies. […] Intensity of the protein bands was quantified by Image J […] (NIH).
# PEDF mRNA [14] = assay: PEDF mRNA level (qPCR) in LH-15 cells exposed to H2O2; format: cell-based, rat; settings: H2O2, 24 hours
# Experimental: as §4, §5
# LH-15 cells = assay: MTT cell viability assay in LH-15 granulosa cells under H2O2; format: cell-based, rat; settings: H2O2 100-500 μM, 24 hours, 2% serum
# Experimental: as §4
# Equal amount of LH-15 cells were seeded onto 6-well plates to a final volume of 500 μl. Following treatments, each well was incubated for 30 minutes with 10 μl of MTT [3-(4, 5-Dimethylthiazol-2-yl)-2, 5-diphenyltetrazolium bromide; 5 mg/ml] followed by an additional 2-4 hours incubation period at 37° C. The reaction was terminated by addition of 110 μl HCl (0.07 M in isopropanol) and OD 560 nm was measured by the SpectraMax 190 microplate reader ([…], Eugene, Oreg., USA).
# GPX-1 = GPX-1 mRNA level (qPCR) in LH-15 cells under H2O2; format: cell-based, rat; settings: H2O2 treatment alone, 24 hours
# Experimental: as §4, §5
# PEDF mRNA [15] = assay: PEDF mRNA level (qPCR) in ovaries of superovulated mice treated with DXR; format: in vivo, mouse; settings: DXR 6 mg/kg IV vs saline; superovulated 7 weeks ICR female mice
# Experimental: FIG. 1A is an illustration depicting the experimental setting: 7 weeks ICR female mice (n=5/group) were treated for superovulation with the standard pregnant mares' serum/human chorionic gonadotropin (PMSG/hCG) protocol [Ben-Aharon et al. Reproductive Biology and Endocrinology: RB&E (2010) 8: 20]. Twenty four hours post PMSG mice were administrated with DXR or saline (control). Ovaries were retrieved twenty four hours post hCG. […] Total RNA was extracted from the ovaries and changes in PEDF mRNA (relative quantification; RQ) level were measured by qPCR using specific primers for PEDF (SEQ ID NOs: 10-11); calibrated with HPRT (SEQ ID NOs: 6-7).
# DXR damage was evaluated in 7 weeks ICR female mice following treatment for superovulation with pregnant mares' serum (PMSG, 7 IU) SC on day 0 and human chorionic gonadotropin (hCG, […]) SC on day 2. On day 1, mice were administered with DXR (6 mg/kg) or saline (control) IV. Mice ovaries were retrieved on day 3 (FIG. 1A). […]
# Total RNA was isolated from various tissues (ovaries, eyes) or from granulosa cells, using Trizol reagent (Invitrogen) according to manufacturer's instructions, and quantified with the Nano-Drop spectrophotometer (ND-1000; Thermo Scientific). […] DNA was amplified using 1 μl RT reaction and 50 pmol gene-specific primers in ReadyMix™ mixture (Sigma). […]
structure (smiles),measurement,setting,value
CC/C(=C(\c1ccccc1)c1ccc(OCCN(C)C)cc1)c1ccccc1 [tamoxifen],uterine PEDF protein expression,PEDF [1],down-regulated
same,density of uterine blood vessels (CD34 staining),CD34,remarkable increase in the density of uterine blood vessels
same,ERα mRNA expression in uteri,ERα [2],up-regulated
same,uterine VEGF protein level,VEGF [3],up-regulated in a dose dependent manner
same,Laminin receptor mRNA level in uteri,Laminin receptor [4],up-regulated
same,PNPLA2 level in uteri,PNPLA2 [5],significantly increased
same,Laminin receptor level in uteri,Laminin receptor [6],did not change significantly
same,uterine weight,OVX ICR mice,increase in uterine weight
same,uterine VEGF protein level,VEGF [7],up-regulation of VEGF protein level
same,uterine PEDF protein level,PEDF [8],down-regulation of PEDF protein level
same,PR expression in uteri,[9],no significant effect
same,ERα mRNA level in uteri,ERα [10],up-regulated
same,PNPLA2 receptor mRNA level in uteri,PNPLA2 [11],up-regulated
same,uterine weight,[12],dose dependent increase
same,PR mRNA level in uteri,[13],no significant effect
OO [H2O2],SOD-1 mRNA level,SOD-1,decreased
same,BAX level,BAX,elevated
same,PEDF mRNA level in LH-15 cells,PEDF mRNA [14],"significantly (P<0.01) reduced PEDF mRNA level, already at a concentration of 100 μM"
same,cells viability (MTT),LH-15 cells,"statistically significant (P<0.05), dose dependent, decrease in cells viability"
same,GPX-1 mRNA level,GPX-1,decreased
"COc1cccc2c1C(=O)c1c(O)c3c(c(O)c1C2=O)C[C@@](O)(C(=O)CO)C[C@@H]3O[C@H]1C[C@H](N)[C@H](O)[C@H](C)O1 [DXR, Doxorubicin]",PEDF mRNA level in mice ovaries,PEDF mRNA [15],significantly (P<0.05) reduced PEDF mRNA level
